Measured values reported in patent publication US20250228865A1, “COMPOUNDS FOR ENHANCING READ THROUGH OF GENES CONTAINING PREMATURE TERMINATION CODONS AND METHODS FOR MAKING AND USING THE SAME” (Sanofi US Services Inc., priority 2022, published 2025).

Tests used:
[1] = tested on: recombinant human CFTR carrying the premature stop codon (PTC) mutation R1162X; assay: CFTR-PTC mutant translation readthrough, Nanoluc tagged CFTR luminescence (R1162X cell line); assay type: cell-based; details: for EC50: in combination with G418, 16HBE cells, read-out: CFTR R1162X ACTIVITY EC50; for CFTR R1162X ACTIVITY Fold 10 μM G-418: fold over 10 μM G-418, in combination with G418
Procedure, shortened: (§1)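 Readthrough is the 48 h compound-induced luminescence increase scaled to that of maximal G418 (125-250 μM). Compounds run from 50 μM final in 2-fold steps, ±10 μM G418, on 16HBE lines carrying Nanoluc-tagged CFTR G542X (extracellular loop 4 tag) or R1162X (C-terminal tag), with 3 μM VX-809 present.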

[2] = tested on: recombinant human CFTR carrying the premature stop codon (PTC) mutation G542X; assay: CFTR-PTC mutant translation readthrough, Nanoluc tagged CFTR luminescence (G542X cell line); assay type: cell-based; details: in combination with G418, G542X cell line; for CFTR G542X ACTIVITY Fold 10 μM G-418: fold over 10 μM G-418; for EC50: 16HBE cells
Procedure, shortened: as §1

EC50 [1] [µM]	EC50 [2] [µM]	Structure (SMILES)	CFTR G542X ACTIVITY Fold 10 μM G-418 [2]	CFTR R1162X ACTIVITY Fold 10 μM G-418 [1]
1 to 10	1 to 10	Cc1cccc(C(F)(F)F)c1COc1cnc(N2CCS(=O)(=O)C(CO)C2)nc1 (centres unmarked) [2-(hydroxymethyl)-4-(5-{[2-methyl-6-(trifluoromethyl)phenyl]]	C′ (C′ = <5X)	
1 to 10	< 1	OCCC1CCN(c2ncc(OCc3c(Cl)cccc3Cl)cn2)CC1 [2-[1-[5-[(2,6-dichlorophenyl)methoxy]pyrimidin-2-yl]-4-piperidyl]ethanol]	A′ (A′ = ≥10X)	B′ (B′ = ≥5X to <10X)
1 to 10	1 to 10	OCCn1ccc(Nc2ccc(OCc3c(Cl)cccc3Cl)cn2)n1 [2-[3-[[5-[(2,6-dichlorophenyl)methoxy]-2-pyridyl]amino]pyrazol-1-yl]ethanol]	A′ (A′ = ≥10X)	A′ (A′ = ≥10X)
1 to 10	1 to 10	OCCn1cc(-c2ccc(OCc3c(Cl)cccc3Cl)cc2)nn1 [2-[4-[4-[(2,6-dichlorophenyl)methoxy]phenyl]triazol-1-yl]ethanol]	B′ (B′ = ≥5X to <10X)	A′ (A′ = ≥10X)
1 to 10	1 to 10	NC(=O)CN1CCN(c2ncc(OCc3c(Cl)cccc3Cl)cn2)CC1 [2-[4-[5-[(2,6-dichlorophenyl)methoxy]pyrimidin-2-yl]piperazin-1-yl]acetamide]	B′ (B′ = ≥5X to <10X)	B′ (B′ = ≥5X to <10X)
1 to 10	1 to 10	OCCN1CCN(c2ncc(OCc3c(Cl)cccc3Cl)cn2)CC1 [2-[4-[5-[(2,6-dichlorophenyl)methoxy]pyrimidin-2-yl]piperazin-1-yl]ethanol]	A′ (A′ = ≥10X)	A′ (A′ = ≥10X)
1 to 10	< 1	Clc1cccc(Cl)c1COc1cnc(N2CC3(CCCOC3)C2)nc1 [2-[5-[(2,6-dichlorophenyl)methoxy]pyrimidin-2-yl]-6-oxa-2-azaspiro[3.5]nonane]	A′ (A′ = ≥10X)	A′ (A′ = ≥10X)
> 10	1 to 10	O=C1OC(CO)CN1c1ccc(CCc2c(Cl)cccc2Cl)cc1 (centres unmarked) [3-[4-[2-(2,6-dichlorophenyl)ethyl]phenyl]-5-(hydroxymethyl)oxazolidin-2-one]	C′ (C′ = <5X)	B′ (B′ = ≥5X to <10X)
1 to 10	1 to 10	O=C1OC(CO)CN1c1ccc(OCc2c(Br)cccc2Br)cc1 (centres unmarked) [3-[4-[(2,6-dibromophenyl)methoxy]phenyl]-5-(hydroxymethyl)oxazolidin-2-one]	A′ (A′ = ≥10X)	A′ (A′ = ≥10X)
> 10	1 to 10	CC(O)C1CN(c2ccc(OCc3c(Cl)cccc3Cl)cc2)C(=O)O1 (centres unmarked) [3-[4-[(2,6-dichlorophenyl)methoxy]phenyl]-5-(1-hydroxyethyl)oxazolidin-2-one]	A′ (A′ = ≥10X)	B′ (B′ = ≥5X to <10X)
1 to 10	1 to 10	O=C1OC(CO)CN1c1ccc(OCc2c(Cl)cccc2Cl)cc1 (centres unmarked) [3-[4-[(2,6-dichlorophenyl)methoxy]phenyl]-5-(hydroxymethyl)oxazolidin-2-one]	B′ (B′ = ≥5X to <10X)	B′ (B′ = ≥5X to <10X)
1 to 10	1 to 10	O=C1OCCN1c1ccc(OCc2c(Cl)cccc2Cl)cc1 [3-[4-[(2,6-dichlorophenyl)methoxy]phenyl]oxazolidin-2-one]	A′ (A′ = ≥10X)	B′ (B′ = ≥5X to <10X)
